Measured values reported in US20250302974A1, “LECTIN-DRUG CONJUGATES” (UNICHEM LABORATORIES LIMITED, priority 2021, published 2025).
Like-named read-outs stand apart in the source and are kept apart here.

Tests used:
[1] = tested on: T24 human bladder carcinoma xenograft; test: In vivo anti-tumor potential, xenograft model (tumor volume, TGI, %T/C, body weight, survival); details: 5 mg/kg, weekly once
Method: (§1) In vivo anti-tumor potential of compound of Formula 16 was evaluated using T24 human bladder carcinoma xenograft model in mice by assessing biological endpoints such as tumor growth and tumor growth inhibition.
(§2) Thirty-five healthy female nude mice bearing T24 tumor with volume of ˜100 mm3 were selected, randomized and allocated into five groups (G1-G5, n=7 animals per group). Body weight of each mouse was recorded on the day of randomization and daily till the end of the study. The tumor size was measured weekly twice from the day of test item/reference drug/vehicle dosing till the end of the experiment. Tumor size was measured by digital caliper (MITUTOYO, Japan) by measuring length and width. Body weight and tumor volume data was statistically analysed using two-way ANOVA (Bonferroni Test). Statistical analysis was conducted using PRISM software, version 5.01.p values of <0.05 were considered as statistically significant. Percentage survival proportions were analyzed by “Kaplan Meier” method.

[2] = tested on: T24 human bladder carcinoma xenograft; test: Histopathological investigation of tumour tissue; type: in vivo, mice; details: 5 mg/kg, weekly once
Method: (§9) Effect of compound of Formula 16 was evaluated using T24 human bladder carcinoma xenograft model.

[3] = tested on: T24 human bladder carcinoma xenograft; test: Effect on immune system (Th1 cytokines, IgM) in xenograft model; type: in vivo, mice
Method: as §9

[4] = tested on: T24 human bladder carcinoma xenograft; test: In vivo anti-tumor potential, T24 human bladder carcinoma xenograft model in female nude mice; details: G2, 5 mg/kg, Weekly once
Method: as §1, §2

[5] = tested on: T24 human bladder carcinoma xenograft; test: Histopathological investigation of tumour tissue, T24 xenograft model; type: in vivo, human T24 tumor in nude mice; details: G2, 5 mg/kg, Weekly once; 'Moderately Differentiated' wrapped over two lines
Method: as §9

Th1 cytokines; IgM = test: Effect on immune system (Th1 cytokines, IgM), T24 xenograft model; type: in vivo, mice
Method: as §9

[6] = Cytotoxic effect by MTT assay, 48 h; details: human
Method: (§3) Cells were treated with Test Items at various concentrations (0.0001 μM-10 μM) for 48 h. The cells corresponding to Positive Control group were treated with Doxorubicin at a concentration ranging from 0.1 μM-100 μM. The Untreated cells were used as Control. After 48 h of incubation, the effect of Test Items on cytotoxicity of cells was determined by MTT assay, the plates were taken out and 20 μl of 5 mg/m1 of MTT 3-(4,5-dimethythiazol-2-yl)-2,5-diphenyl tetrazolium bromide solution was added to all the wells. Cells were incubated for 3 h at 37° C. The supernatant was aspirated. 150 μl of DMSO was added to each well to dissolve formazan crystals. The absorbance of each well was then read at 540 nm using Synergy HT micro plate reader.
(§4) The % Cytotoxicity was calculated using the formula:
(§5) Where, X=Absorbance of cells treated with Test Item; R=Absorbance of Control cells (Untreated cells maintained in growth medium only).
(§6) Selectivity Index was calculated using the formula:
(§7) SI=IC50 in Normal cell/IC50 in cancer cell.
(§8) Activity scores of the Selective Index values were categorized as: • Not selective (SI value ≤1) • Moderately selective (1<SI value <5) • Selective (SI value ≥5)

AGS Stomach = test: Cytotoxic effect by MTT assay, 48 h; details: 48 h
Method: as §3, §4, §5, §6, §7, §8

HT29 Colon = test: Cytotoxic effect by MTT assay, 48 h; details: Homo sapiens, HT-29, 48 h
Method: as §3, §4, §5, §6, §7, §8

KB Cervix = test: Cytotoxic effect by MTT assay, 48 h; details: 48 h
Method: as §3, §4, §5, §6, §7, §8

MDA-MB-231 Breast = test: Cytotoxic effect by MTT assay, 48 h; details: Homo sapiens, MDA-MB-231, 48 h
Method: as §3, §4, §5, §6, §7, §8

MG-63 Bone = test: Cytotoxic effect by MTT assay, 48 h; details: Homo sapiens, MG-63, 48 h
Method: as §3, §4, §5, §6, §7, §8

PA-1 Ovary = test: Cytotoxic effect by MTT assay, 48 h; details: 48 h
Method: as §3, §4, §5, §6, §7, §8

PANC-1 Pancreatic = test: Cytotoxic effect by MTT assay, 48 h; details: Homo sapiens, PANC-1, 48 h, read-out: IC50 Values
Method: as §3, §4, §5, §6, §7, §8

T24 Bladder = test: Cytotoxic effect by MTT assay, 48 h; details: Homo sapiens, 48 h
Method: as §3, §4, §5, §6, §7, §8

U251 MG Brain = test: Cytotoxic effect by MTT assay, 48 h; details: Homo sapiens, U-251, 48 h
Method: as §3, §4, §5, §6, §7, §8

[7] = Cytotoxic effect by MTT assay, 48 h; details: human; remark: listed apart in the source
Method: as §3, §4, §5, §6, §7, §8

A549 Lungs = test: Cytotoxic effect by MTT assay, 48 h; details: Homo sapiens, A549, 48 h, read-out: IC50 Values
Method: as §3, §4, §5, §6, §7, §8

[8] = Cytotoxic effect by MTT assay, 48 h
Method: as §3, §4, §5

PBMC Normal = test: Cytotoxic effect by MTT assay, 48 h; details: PBMC, 48 h, read-out: IC50 Values
Method: as §3, §4, §5

[9] = read-out: Percent cytotoxicity wrt control

With `N.N.[Cl][Pt][Cl]` [Cisplatin] the Percent survival [1] was 100%, the Tumor growth delay [1] was 10.5 days and the “Percent T/C Day 22” value ([1]; Day 22) was 59.18%. For the same compound, the “Percent TGI Day 22” value ([1]; Day 22) was 40.82%, the “Tumor volume Day 22” value ([1]; Day 22) was 622.6 cu · mm and the “Percent body weight change Day 22” value ([1]; Day 22, nude mice bearing T24 tumor) was 6.3%. The Apoptosis [2] was “Mild”, the Grade [2] was 2 (Grade 2 (Moderately Differentiated) - <25-50% cells anaplastic) and the “Grade (differentiation in words)” value [2] was “Moderately”. The “Immunoglobulins IgG” value ([3]; 5 mg/kg, i.p. (q7dX2)) was 54 ng/mL, the “Immunoglobulins IgM” value ([3]; 5 mg/kg, i.p. (q7dX2)) was 18 ng/mL and the “Th1 cytokines IFN gamma” value ([3]; 5 mg/kg, i.p. (q7dX2)) was 80.8 pg/mL. For the same compound, the “Th1 cytokines IL-2” value ([3]; 5 mg/kg, i.p. (q7dX2)) was 259.3 pg/mL, the “Th2 cytokines IL-4” value ([3]; 5 mg/kg, i.p. (q7dX2)) was 60 pg/mL and the “Th2 cytokines IL-10” value ([3]; 5 mg/kg, i.p. (q7dX2)) was “BLQ”. The IgM level ([3]; mouse, in vivo) was “reduction in IgM”, the “Percent T/C Day 22 (Test/Control)” value [4] was 59.18% and the “Percent TGI Day 22 (Tumor Growth Inhibition)” value [4] was 40.82%. The “Grade (differentiation)” value [5] was “Moderately”, the “IFN gamma (Th1 cytokine)” value (Th1 cytokines; IgM; G2, 5 mg/kg, i.p. (q7dX2)) was 80.8 pg/mL and the “IL-2 (Th1 cytokine)” value (Th1 cytokines; IgM; G2, 5 mg/kg, i.p. (q7dX2)) was 259.3 pg/mL. The “IL-4 (Th2 cytokine)” value (Th1 cytokines; IgM; G2, 5 mg/kg, i.p. (q7dX2)) was 60 pg/mL, the “IL-10 (Th2 cytokine)” value (Th1 cytokines; IgM; G2, 5 mg/kg, i.p. (q7dX2)) was “BLQ” and the IgG (Th1 cytokines; IgM; G2, 5 mg/kg, i.p. (q7dX2)) was 54 ng/mL. For the same compound, the IgM (Th1 cytokines; IgM; G2, 5 mg/kg, i.p. (q7dX2)) was 18 ng/mL and the IgM (Th1 cytokines; IgM; T24 xenograft model) was “reduction in IgM”.

With `COc1cccc2c1C(=O)c1c(O)c3c(c(O)c1C2=O)C[C@@](O)(C(=O)CO)C[C@@H]3O[C@H]1C[C@H](N)[C@H](O)[C@H](C)O1` [Doxorubicin] the cytotoxicity at 48 h, 0.1 µM [6] was -3.4%, the IC50 (AGS Stomach; read-out: IC50 Values) was 4.3 µM and the cytotoxicity at 0.1 µM (AGS Stomach; [9]) was 15.6%. It also gave a cytotoxicity at 1 µM (AGS Stomach; [9]) of 72.4%, a cytotoxicity at 10 µM (AGS Stomach; [9]) of 74.5% and a cytotoxicity at 50 µM (AGS Stomach; [9]) of 74.8%. It also gave a cytotoxicity at 100 µM (AGS Stomach; [9]) of 79%, an IC50 (HT29 Colon; read-out: IC50 Values) of 35.3 µM and a cytotoxicity at 0.1 µM (HT29 Colon; [9]) of 3.2%. For the same compound, the cytotoxicity at 1 µM (HT29 Colon; [9]) was 1.7%, the cytotoxicity at 10 µM (HT29 Colon; [9]) was 32.7% and the cytotoxicity at 50 µM (HT29 Colon; [9]) was 61.9%. For the same compound, the cytotoxicity at 100 µM (HT29 Colon; [9]) was 59.8%, the IC50 (KB Cervix; read-out: IC50 Values) was 0.6 µM and the cytotoxicity at 0.1 µM (KB Cervix; [9]) was 28.7%. For the same compound, the cytotoxicity at 1 µM (KB Cervix; [9]) was 53.1%, the cytotoxicity at 10 µM (KB Cervix; [9]) was 95.7% and the cytotoxicity at 50 µM (KB Cervix; [9]) was 91.7%. For the same compound, the cytotoxicity at 100 µM (KB Cervix; [9]) was 84.2%, the IC50 (MDA-MB-231 Breast; read-out: IC50 Values) was 2.1 µM and the cytotoxicity at 0.1 µM (MDA-MB-231 Breast; [9]) was 3.4%. It also gave a cytotoxicity at 1 µM (MDA-MB-231 Breast; [9]) of 68%, a cytotoxicity at 10 µM (MDA-MB-231 Breast; [9]) of 74.3% and a cytotoxicity at 50 µM (MDA-MB-231 Breast; [9]) of 71.3%. The cytotoxicity at 100 µM (MDA-MB-231 Breast; [9]) was 58%, the IC50 (MG-63 Bone; read-out: IC50 Values) was 0.4 µM and the cytotoxicity at 0.1 µM (MG-63 Bone; [9]) was 35.3%. It also gave a cytotoxicity at 1 µM (MG-63 Bone; [9]) of 60.7%, a cytotoxicity at 10 µM (MG-63 Bone; [9]) of 82% and a cytotoxicity at 50 µM (MG-63 Bone; [9]) of 85.5%. The cytotoxicity at 100 µM (MG-63 Bone; [9]) was 75.5%, the IC50 (PA-1 Ovary; read-out: IC50 Values) was 1 µM and the cytotoxicity at 0.1 µM (PA-1 Ovary; [9]) was 19.6%. For the same compound, the cytotoxicity at 1 µM (PA-1 Ovary; [9]) was 62.6%, the cytotoxicity at 10 µM (PA-1 Ovary; [9]) was 73.2% and the cytotoxicity at 50 µM (PA-1 Ovary; [9]) was 79%. For the same compound, the cytotoxicity at 100 µM (PA-1 Ovary; [9]) was 71.5%, the IC50 (PANC-1 Pancreatic) was 8.2 µM and the IC50 (T24 Bladder; read-out: IC50 Values) was 5.5 µM. The cytotoxicity at 0.1 µM (T24 Bladder; [9]) was 21%, the cytotoxicity at 1 µM (T24 Bladder; [9]) was 34.8% and the cytotoxicity at 10 µM (T24 Bladder; [9]) was 72.8%. The cytotoxicity at 50 µM (T24 Bladder; [9]) was 66.6%, the cytotoxicity at 100 µM (T24 Bladder; [9]) was 52.7% and the IC50 (U251 MG Brain; read-out: IC50 Values) was 8.1 µM. It also gave a cytotoxicity at 0.1 µM (U251 MG Brain; [9]) of -13.5%, a cytotoxicity at 1 µM (U251 MG Brain; [9]) of 41.7% and a cytotoxicity at 10 µM (U251 MG Brain; [9]) of 57.9%. The cytotoxicity at 50 µM (U251 MG Brain; [9]) was 71%, the cytotoxicity at 100 µM (U251 MG Brain; [9]) was 65.6% and the cytotoxicity at 48 h, 0.1 µM [7] was 3.3%. For the same compound, the IC50 (A549 Lungs) was 11 µM, the cytotoxicity at 48 h, 0.1 µM [8] was 5.3% and the cytotoxicity at 48 h, 1 µM [8] was 29.3%. For the same compound, the cytotoxicity at 48 h, 10 µM [8] was 37.4%, the cytotoxicity at 48 h, 50 µM [8] was 40.5% and the cytotoxicity at 48 h, 100 µM [8] was 37.1%. For the same compound, the IC50 (PBMC Normal) was > 100 µM.
